ChEMBL document CHEMBL1201862, “PubChem BioAssay data set” (2004)
Active and inactive are the calls of the source.

What was measured:
[1] = target: T1, Rac GTPase-activating protein 1 (Homo sapiens, UniProt Q9H0H5); assay: blockers of MgcRacGAP-driven Rac1 GTP hydrolysis – biochemical, ADP Hunter fluorescence, primary and confirmatory, confirmation (AID 624330); type: functional
T1 sequence (Q9H0H5 whole entry): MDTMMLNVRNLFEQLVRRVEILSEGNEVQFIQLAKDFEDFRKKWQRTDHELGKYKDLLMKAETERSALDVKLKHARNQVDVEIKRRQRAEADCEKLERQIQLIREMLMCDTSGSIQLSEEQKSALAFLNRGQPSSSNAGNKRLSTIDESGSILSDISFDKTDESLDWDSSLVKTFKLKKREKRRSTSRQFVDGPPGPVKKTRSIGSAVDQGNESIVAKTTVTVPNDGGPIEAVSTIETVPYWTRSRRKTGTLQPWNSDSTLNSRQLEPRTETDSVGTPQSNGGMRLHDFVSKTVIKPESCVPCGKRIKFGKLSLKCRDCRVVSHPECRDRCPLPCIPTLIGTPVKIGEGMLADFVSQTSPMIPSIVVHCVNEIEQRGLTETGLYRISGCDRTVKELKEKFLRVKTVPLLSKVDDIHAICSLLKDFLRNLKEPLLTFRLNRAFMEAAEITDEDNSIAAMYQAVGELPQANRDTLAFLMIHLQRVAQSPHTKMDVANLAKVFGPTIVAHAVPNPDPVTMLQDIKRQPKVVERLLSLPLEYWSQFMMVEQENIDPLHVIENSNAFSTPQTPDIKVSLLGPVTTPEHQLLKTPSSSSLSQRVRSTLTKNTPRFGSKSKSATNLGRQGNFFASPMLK

SUMO-activating enzyme [2] = target: T2, SUMO-activating enzyme (Homo sapiens, UniProt Q9UBT2); assay: blockers of SAE1/SAE2–UBC9 SUMO transfer – biochemical, HTRF, uHTS, primary screen (AID 2006); type: protein-complex assay
[3] = HEK-293T cell viability reduction – luminescence, B-cell screen hits, cytotoxicity control for BCR NF-kB inhibitor project, dose response (AID 489021); type: functional, cell-based;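 also: HEK-293T cells carrying an NF-kB luciferase reporter; cells exposed to compound for about 14 hours before viability readout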
[4] = target: T3, Sentrin-specific protease 1 (Homo sapiens, UniProt Q9P0U3); assay: SENP1 catalytic domain blockers, concentration series – biochemical, kinetic FRET, dose response (AID 651697); type: functional; conditions: read-out: IC50_Mean
T3 sequence (Q9P0U3 whole entry): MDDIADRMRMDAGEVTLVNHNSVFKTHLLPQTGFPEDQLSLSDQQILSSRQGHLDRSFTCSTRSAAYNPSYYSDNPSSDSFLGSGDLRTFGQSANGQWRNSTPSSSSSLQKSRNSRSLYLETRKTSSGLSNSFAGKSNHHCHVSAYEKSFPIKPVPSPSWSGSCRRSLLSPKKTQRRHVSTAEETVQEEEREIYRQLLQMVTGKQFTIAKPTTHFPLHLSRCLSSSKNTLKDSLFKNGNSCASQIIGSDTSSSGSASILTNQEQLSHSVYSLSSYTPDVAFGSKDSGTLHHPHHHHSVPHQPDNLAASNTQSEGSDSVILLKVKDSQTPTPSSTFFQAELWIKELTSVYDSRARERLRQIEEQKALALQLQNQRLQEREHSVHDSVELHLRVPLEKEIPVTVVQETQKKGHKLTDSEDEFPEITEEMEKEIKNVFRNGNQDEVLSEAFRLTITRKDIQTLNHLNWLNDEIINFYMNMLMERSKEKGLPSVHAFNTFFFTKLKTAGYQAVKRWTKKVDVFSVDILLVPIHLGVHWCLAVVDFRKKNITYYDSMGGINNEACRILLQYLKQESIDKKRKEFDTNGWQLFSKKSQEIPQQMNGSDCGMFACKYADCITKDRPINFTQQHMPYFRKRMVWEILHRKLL

[5] = target: T3, Sentrin-specific protease 1; assay: Dose response confirmation of small molecule inhibitors of the catalytic domain of the SUMO protease, SENP1 in a FRET assay.; type: functional; conditions: read-out: IC50_Mean
Cytochrome P450 3A4 = Cytochrome P450 3A4 (Homo sapiens, UniProt P08684);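 also: CYP3A4 tested as one member of a cytochrome P450 panel screen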
[6] = target: Lysosomal acid glucosylceramidase (Homo sapiens, UniProt P04062); assay: Dose response cell-based high throughput screening assay to identify enhancers of beta-glucosidase activity. [Related pubchem assays: 784 ]; type: functional
Kallikrein-7 = Kallikrein-7 (Homo sapiens, UniProt P49862); assay: Fluorescence Intensity-based biochemical primary high throughput dose response assay to identify activators of kallikrein-7 (K7) zymogen.
[7] = target: T4, DNA repair and recombination protein RAD54-like (Homo sapiens, UniProt Q92698); assay: RAD54 Holliday junction migration blockers – biochemical, fluorescence, cherry-picked samples, dose series, confirmation (AID 651657); type: functional
T4 sequence (Q92698 whole entry): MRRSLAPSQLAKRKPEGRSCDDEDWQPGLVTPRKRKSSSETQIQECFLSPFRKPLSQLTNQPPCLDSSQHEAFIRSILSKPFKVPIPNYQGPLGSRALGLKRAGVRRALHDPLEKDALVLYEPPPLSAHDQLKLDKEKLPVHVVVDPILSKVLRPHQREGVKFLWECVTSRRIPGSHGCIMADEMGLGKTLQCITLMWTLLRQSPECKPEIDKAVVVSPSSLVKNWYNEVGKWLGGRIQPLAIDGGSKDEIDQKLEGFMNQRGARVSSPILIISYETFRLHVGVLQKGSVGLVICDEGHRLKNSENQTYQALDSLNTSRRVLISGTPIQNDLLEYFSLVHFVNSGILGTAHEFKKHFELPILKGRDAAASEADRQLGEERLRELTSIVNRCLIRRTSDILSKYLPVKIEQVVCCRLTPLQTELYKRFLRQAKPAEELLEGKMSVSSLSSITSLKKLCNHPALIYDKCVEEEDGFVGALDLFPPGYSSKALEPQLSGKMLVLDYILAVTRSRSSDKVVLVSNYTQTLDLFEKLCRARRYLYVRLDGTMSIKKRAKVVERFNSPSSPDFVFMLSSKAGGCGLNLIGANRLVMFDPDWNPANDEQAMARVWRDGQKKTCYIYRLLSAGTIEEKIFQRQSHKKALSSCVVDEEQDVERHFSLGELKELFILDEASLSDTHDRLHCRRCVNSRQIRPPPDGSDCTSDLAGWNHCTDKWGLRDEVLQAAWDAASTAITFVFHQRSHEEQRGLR

[8] = target: Melanin-concentrating hormone receptor 1 (Homo sapiens, UniProt Q99705); assay: Fluorescence-based counterscreen for antagonists of the G-protein coupled receptor 7 (GPR7): cell-based high throughput dose response assay to identify antagonists of the melanin-concentrating hormone receptor 1 (MCHR1).; type: functional
[9] = target: Metabotropic glutamate receptor 4 (Rattus norvegicus, UniProt P31423); assay: Modulation of the Metabotropic Glutamate Receptor mGluR4: Rat PAM Potency. [Related pubchem assays (depositor defined):AID2437, AID2807]; type: functional
Protein Rev = Protein Rev (Human immunodeficiency virus type 1 group M subtype B (isolate WMJ22)(HIV-1), UniProt P05866); assay: inhibitors of Rev protein–RRE RNA complex – biochemical, protein-RNA interaction, dose response (AID 842); parameters: species or system Human immunodeficiency virus 1
[10] = target: Glyceraldehyde-3-phosphate dehydrogenase (Homo sapiens, UniProt P04406)
Bcl-2-related protein A1 [11] = target: T5, Bcl-2-related protein A1 (Mus musculus, UniProt Q07440); assay: small-molecule antagonists of Bfl-1/BH3 interaction – biochemical, TR-FRET, mouse Bfl-1, confirmation (AID 621);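 also: TR-FRET binding of GST-Bfl-1 to FITC-labelled Bid peptide via terbium antibody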
T5 sequence (Q07440 whole entry): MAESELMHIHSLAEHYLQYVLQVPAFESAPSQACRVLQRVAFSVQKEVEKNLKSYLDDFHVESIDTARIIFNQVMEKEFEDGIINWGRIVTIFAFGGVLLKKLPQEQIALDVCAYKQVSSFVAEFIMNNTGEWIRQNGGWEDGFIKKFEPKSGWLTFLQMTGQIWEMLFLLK

Bcl-2-related protein A1 [12] = target: T5, Bcl-2-related protein A1; assay: Bfl-1 binding inhibitors, SAR follow-up, biochemical, fluorescence polarization (AID 1070)
[13] = target: Induced myeloid leukemia cell differentiation protein Mcl-1 (Homo sapiens, UniProt Q07820); type: functional
[14] = Luminescence Cell-Based Dose Retest to Confirm Inhibitors of Cancer Stem Cells. [Related pubchem assays (depositor defined):AID2717, AID2721]; type: functional; conditions: Homo sapiens
[15] = viability of HCT116 lacking mutant beta-catenin – cell-based, human colon tumor, dose response (AID 1045); type: functional;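 also: HCT116 colon tumor cells with beta catenin knocked out; cells exposed to compound for 60 hours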
[16] = viability of PTEN-deleted HCT116 cells – cell-based, HCT116 PTEN knockout, dose response (AID 1047); type: functional;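 also: HCT116 colon tumor cells with PTEN knocked out; cells exposed to compound for 60 hours before readout; potency for loss of cell viability measured by luminescence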
[17] = viability of uninfected HEp-2 cells – cell-based, HTS, cytotoxicity control for RSV inhibitor project, dose response (AID 2410); type: functional; conditions: human respiratory syncytial virus
[18] = target: Eukaryotic translation initiation factor 4E (Mus musculus, UniProt P63073); assay: blockers of eIF4G binding by eIF4E – biochemical, TR-FRET, dose response (AID 855); type: functional;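 also: potency for disrupting eIF4E binding to eIF4GI seen as loss of FRET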
SUMO-activating enzyme [19] = target: T2, SUMO-activating enzyme; assay: blockers of UBC9-mediated SUMO conjugation – biochemical, AlphaScreen, SUMOylation inhibitor project, confirmation (AID 2018); type: functional
Vero = assay: cells; type: functional; conditions: Chlorocebus sabaeus

T2 sequence (Q9UBE0 whole entry): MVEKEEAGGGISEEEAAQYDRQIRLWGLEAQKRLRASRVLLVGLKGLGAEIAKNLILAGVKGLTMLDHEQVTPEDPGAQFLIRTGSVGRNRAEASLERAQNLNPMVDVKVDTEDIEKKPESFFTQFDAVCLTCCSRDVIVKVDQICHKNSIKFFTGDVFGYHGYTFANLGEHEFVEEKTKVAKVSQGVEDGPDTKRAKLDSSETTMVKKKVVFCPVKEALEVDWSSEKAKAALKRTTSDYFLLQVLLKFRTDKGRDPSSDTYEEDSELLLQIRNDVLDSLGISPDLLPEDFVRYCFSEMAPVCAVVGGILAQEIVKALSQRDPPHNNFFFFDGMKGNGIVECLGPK
T2 sequence (Q9UBT2 whole entry): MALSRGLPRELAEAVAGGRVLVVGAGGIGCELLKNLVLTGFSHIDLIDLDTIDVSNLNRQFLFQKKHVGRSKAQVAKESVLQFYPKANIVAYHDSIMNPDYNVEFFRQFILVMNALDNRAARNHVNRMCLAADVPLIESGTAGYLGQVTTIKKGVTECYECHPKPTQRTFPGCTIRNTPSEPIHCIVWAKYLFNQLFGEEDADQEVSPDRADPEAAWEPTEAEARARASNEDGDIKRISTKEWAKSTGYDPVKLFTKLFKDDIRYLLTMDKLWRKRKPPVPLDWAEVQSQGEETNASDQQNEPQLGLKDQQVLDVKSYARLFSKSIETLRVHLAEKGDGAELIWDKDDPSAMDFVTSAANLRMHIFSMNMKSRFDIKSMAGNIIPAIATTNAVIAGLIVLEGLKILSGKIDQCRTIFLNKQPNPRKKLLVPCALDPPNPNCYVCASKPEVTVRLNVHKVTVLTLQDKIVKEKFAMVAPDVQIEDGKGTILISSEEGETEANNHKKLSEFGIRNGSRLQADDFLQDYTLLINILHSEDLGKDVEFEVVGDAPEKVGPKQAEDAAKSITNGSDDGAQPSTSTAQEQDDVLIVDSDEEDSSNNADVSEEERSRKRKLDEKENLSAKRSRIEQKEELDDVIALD
Glyceraldehyde-3-phosphate dehydrogenase, sequence (P04406 whole entry): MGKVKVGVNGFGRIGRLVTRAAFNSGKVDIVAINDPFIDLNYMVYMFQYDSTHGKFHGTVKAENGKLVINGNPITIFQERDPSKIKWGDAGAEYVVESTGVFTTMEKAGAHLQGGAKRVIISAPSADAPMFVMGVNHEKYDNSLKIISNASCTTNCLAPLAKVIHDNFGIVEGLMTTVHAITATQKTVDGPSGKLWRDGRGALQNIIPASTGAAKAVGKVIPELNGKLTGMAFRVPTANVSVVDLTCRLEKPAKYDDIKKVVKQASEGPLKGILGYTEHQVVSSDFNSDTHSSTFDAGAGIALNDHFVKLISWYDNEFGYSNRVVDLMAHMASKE
Metabotropic glutamate receptor 4, sequence (P31423 whole entry): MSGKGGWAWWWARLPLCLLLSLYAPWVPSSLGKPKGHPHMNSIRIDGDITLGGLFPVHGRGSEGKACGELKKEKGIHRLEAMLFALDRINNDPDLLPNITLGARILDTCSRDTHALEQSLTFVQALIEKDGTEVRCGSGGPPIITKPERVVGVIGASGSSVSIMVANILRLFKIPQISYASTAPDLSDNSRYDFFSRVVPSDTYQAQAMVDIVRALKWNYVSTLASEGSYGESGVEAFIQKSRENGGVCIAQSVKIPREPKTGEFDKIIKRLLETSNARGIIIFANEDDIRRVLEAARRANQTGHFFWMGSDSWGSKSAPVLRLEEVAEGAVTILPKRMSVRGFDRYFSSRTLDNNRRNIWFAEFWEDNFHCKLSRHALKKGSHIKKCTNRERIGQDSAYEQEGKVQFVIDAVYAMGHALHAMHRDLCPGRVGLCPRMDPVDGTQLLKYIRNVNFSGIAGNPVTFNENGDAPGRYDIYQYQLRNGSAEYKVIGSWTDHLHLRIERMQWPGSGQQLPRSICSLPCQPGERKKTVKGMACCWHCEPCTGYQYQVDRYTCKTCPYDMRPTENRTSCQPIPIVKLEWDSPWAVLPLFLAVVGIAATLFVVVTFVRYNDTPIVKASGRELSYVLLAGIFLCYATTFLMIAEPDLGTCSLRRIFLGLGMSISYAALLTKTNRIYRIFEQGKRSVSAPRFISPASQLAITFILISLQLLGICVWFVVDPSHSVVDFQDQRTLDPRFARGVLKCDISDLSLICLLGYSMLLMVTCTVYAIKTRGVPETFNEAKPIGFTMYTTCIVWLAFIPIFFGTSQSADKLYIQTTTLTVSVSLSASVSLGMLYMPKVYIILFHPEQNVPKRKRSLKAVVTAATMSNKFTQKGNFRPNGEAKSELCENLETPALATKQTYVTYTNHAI
Protein Rev, sequence (P05866 whole entry): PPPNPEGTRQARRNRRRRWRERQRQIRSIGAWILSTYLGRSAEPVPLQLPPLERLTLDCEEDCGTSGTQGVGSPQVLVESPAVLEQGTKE
Lysosomal acid glucosylceramidase, sequence (P04062 whole entry): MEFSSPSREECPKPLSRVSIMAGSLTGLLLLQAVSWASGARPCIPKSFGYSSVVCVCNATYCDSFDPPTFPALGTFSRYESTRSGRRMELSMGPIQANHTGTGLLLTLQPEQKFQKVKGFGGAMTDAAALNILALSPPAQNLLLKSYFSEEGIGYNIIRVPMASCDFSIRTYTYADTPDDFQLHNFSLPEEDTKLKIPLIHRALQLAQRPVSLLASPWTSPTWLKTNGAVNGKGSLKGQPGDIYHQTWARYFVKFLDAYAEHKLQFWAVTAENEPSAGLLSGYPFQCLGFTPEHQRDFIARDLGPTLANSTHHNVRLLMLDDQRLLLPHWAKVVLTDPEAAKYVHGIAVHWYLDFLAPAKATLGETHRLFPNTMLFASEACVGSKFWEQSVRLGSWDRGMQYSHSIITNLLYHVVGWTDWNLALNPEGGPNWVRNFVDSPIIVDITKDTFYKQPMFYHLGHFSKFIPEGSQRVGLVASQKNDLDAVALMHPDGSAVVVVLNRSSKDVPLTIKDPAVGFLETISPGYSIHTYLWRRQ
Eukaryotic translation initiation factor 4E, sequence (P63073 whole entry): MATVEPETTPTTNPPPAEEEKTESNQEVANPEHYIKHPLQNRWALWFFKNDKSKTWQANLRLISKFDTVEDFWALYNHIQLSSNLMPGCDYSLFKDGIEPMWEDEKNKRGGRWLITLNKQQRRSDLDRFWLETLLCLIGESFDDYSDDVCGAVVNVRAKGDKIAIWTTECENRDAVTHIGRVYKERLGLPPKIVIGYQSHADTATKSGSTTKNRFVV
Induced myeloid leukemia cell differentiation protein Mcl-1, sequence (Q07820 whole entry): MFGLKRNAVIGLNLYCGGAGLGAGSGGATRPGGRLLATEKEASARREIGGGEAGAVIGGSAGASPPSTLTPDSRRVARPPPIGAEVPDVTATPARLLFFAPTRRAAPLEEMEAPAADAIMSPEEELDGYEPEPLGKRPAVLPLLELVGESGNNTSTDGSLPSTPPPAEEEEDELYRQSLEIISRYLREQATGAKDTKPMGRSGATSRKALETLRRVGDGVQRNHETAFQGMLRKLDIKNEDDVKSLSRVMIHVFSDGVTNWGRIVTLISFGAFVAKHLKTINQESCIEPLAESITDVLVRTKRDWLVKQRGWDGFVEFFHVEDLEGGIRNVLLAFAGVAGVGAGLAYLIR
Cytochrome P450 3A4, sequence (P08684 whole entry): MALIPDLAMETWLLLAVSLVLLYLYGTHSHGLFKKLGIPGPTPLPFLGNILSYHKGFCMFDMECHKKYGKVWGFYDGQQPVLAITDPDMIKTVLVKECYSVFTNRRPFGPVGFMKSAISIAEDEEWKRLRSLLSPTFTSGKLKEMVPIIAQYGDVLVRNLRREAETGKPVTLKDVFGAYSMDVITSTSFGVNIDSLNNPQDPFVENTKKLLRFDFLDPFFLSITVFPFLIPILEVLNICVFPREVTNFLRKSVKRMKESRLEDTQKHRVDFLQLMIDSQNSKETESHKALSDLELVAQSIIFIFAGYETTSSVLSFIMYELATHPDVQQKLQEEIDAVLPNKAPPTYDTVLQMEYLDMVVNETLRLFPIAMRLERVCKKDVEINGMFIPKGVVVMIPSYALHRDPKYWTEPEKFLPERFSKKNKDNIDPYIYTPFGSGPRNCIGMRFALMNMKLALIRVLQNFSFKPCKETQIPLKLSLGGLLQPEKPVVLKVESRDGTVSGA
Melanin-concentrating hormone receptor 1, sequence (Q99705 whole entry): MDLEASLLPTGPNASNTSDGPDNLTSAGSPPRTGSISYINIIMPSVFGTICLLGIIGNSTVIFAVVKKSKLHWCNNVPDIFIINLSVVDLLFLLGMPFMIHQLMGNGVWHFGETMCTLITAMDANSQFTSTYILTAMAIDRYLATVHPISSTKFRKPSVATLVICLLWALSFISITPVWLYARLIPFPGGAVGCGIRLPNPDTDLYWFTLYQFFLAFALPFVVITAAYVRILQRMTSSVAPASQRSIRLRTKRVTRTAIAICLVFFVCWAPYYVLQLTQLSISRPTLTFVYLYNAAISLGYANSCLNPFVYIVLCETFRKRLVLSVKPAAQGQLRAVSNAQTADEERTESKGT
Kallikrein-7, sequence (P49862 whole entry): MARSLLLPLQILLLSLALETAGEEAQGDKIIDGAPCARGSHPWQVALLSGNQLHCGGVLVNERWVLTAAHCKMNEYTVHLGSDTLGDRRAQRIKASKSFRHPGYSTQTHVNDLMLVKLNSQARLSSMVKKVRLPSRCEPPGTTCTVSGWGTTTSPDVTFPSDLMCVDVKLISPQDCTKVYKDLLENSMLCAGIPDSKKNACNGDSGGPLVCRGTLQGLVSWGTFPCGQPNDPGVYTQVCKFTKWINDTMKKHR

## O=[N+]([O-])c1cc([N+](=O)[O-])c2nonc2c1Nc1ccc(O)cc1
[1]
  IC50: 56.8 µM (active)
SUMO-activating enzyme [2]
  IC50: > 100 µM (inactive)

## CCN1C(=O)c2cccc3c(NC(=O)c4cccc(N5C(=O)CCC5=O)c4)ccc1c23
[3]
  IC50: > 80 µM (inactive)
[4]
  IC50: 17.9 µM (active)
[5]
  IC50: 11.3 µM (active)
Cytochrome P450 3A4
  AC50: 22.4 µM (inconclusive)

## CCOCCCn1c(=N)c(C(=O)NCCN2CCOCC2)cc2c(=O)n3cccc(C)c3nc21
[6]
  EC50: > 50 µM (not active)
Kallikrein-7
  EC50: > 69.5 µM (inactive)
[7]
  AC50: 25.3 µM (active)

## COCCCNC(=O)/C=C1\Sc2ccccc2N(Cc2ccccc2F)C1=O
[8]
  IC50: 28.8 µM (not active)

## O=C(Nc1ccc(Cl)c(Cl)c1)c1ccncn1
[9]
  EC50: 3.37 µM (active)

## NCCCC(=O)N1c2ccccc2Sc2ccccc21
Protein Rev
  IC50: > 79.4 µM (not active)

## CC(C)COc1ccc(Cc2cnc(N)nc2N)cc1
Protein Rev
  IC50: > 79.4 µM (not active)

## Cc1cccc(N2C(=O)C(Cl)=C(N3CCN[C@@H](C)C3)C2=O)c1
[10]
  IC50: > 50 µM (inconclusive)

## CC1=C(C(N)=O)C(c2cccs2)n2nc(-c3cccc(C)c3)nc2N1 (centres undefined)
[6]
  EC50: > 50 µM (not active)

## CN1CCN(C2=C(Cl)C(=O)N(c3ccnc(Cl)c3)C2=O)CC1
Bcl-2-related protein A1 [11]
  IC50: 35.6 µM (active)
[10]
  IC50: > 100 µM (not active)
Bcl-2-related protein A1 [12]
  IC50: 29 µM (active)

## O=C(Nc1ccc(N2C(=O)CC(c3ccccc3)C2=O)c(Cl)c1)c1ccccn1 (centres undefined)
[9]
  EC50: 0.49 µM (active)

## COc1cc2c(-c3ccc(O)cc3)nc3c(c(C)nn3-c3ccccc3)c2cc1OC
cells
  IC50: 19.1 µM (active)
[13]
  IC50: < 0.4 µM (active)
SUMO-activating enzyme [2]
  IC50: 7.67 µM (active)
[14]
  AC50: 1.23 µM (active)
[15]
  EC50: 8.96 µM (active)
[16]
  EC50: 9.2 µM (active)
[17]
  CC50: 9.63 µM (active)
[18]
  IC50: 53.5 µM (inactive)
SUMO-activating enzyme [19]
  IC50: 2.06 µM (active)
Vero
  CC50: 19.7 µM (active)
